Reference: ChEMBL document CHEMBL5352470, “RS6077 induces mitotic arrest and selectively activates cell death in human cancer cell lines and in a lymphoma tumor in vivo” (Eur J Med Chem, 2023)
Active and inactive are the calls of the source. The rule behind the calls is not given here.

Columns and labels:
TMD8 [1] = experiment: Antiproliferative activity against human TMD8 cells assessed as inhibition of cell growth measured for 72 hrs by MTT assay; assay type: functional, cell-based; conditions: TMD8, 72 h
AHH-1 [2] = experiment: Induction of cell cycle arrest in human AHH-1 cells assessed as accumulation of cells at G1 phase at 2500 nM incubated for 72 hrs by annexin V-FITC and PI staining based flow cytometry analysis; assay type: functional
AHH-1 [3] = experiment: Induction of cell cycle arrest in human AHH-1 cells assessed as accumulation of cells at S phase at 2500 nM incubated for 72 hrs by annexin V-FITC and PI staining based flow cytometry analysis; assay type: functional
TERT-RPE1 [4] = experiment: Induction of cell cycle arrest in human TERT-RPE1 cells assessed as accumulation of cells at S phase at 1000 nM incubated for 72 hrs by annexin V-FITC and PI staining based flow cytometry analysis; assay type: functional
TERT-RPE1 [5] = experiment: Induction of cell cycle arrest in human TERT-RPE1 cells assessed as accumulation of cells at G2/M phase at 2500 nM incubated for 72 hrs by annexin V-FITC and PI staining based flow cytometry analysis; assay type: functional
TERT-RPE1 [6] = experiment: Induction of cell cycle arrest in human TERT-RPE1 cells assessed as accumulation of cells at G1 phase at 2500 nM incubated for 72 hrs by annexin V-FITC and PI staining based flow cytometry analysis; assay type: functional
[7] = Toxicity in human T cells derived from human PBMC assessed as viable cells at 1 uM measured for 72 hrs by annexin V-FITC and PI staining based flow cytometry analysis (reference value: 66.5 to 77.5 %); assay type: cell-based, T-cell; conditions: read-out: Activity
TMD8 [8] = experiment: Antitumor activity against human TMD8 cells xenografted in NOD/SCID mouse assessed as reduction in tumor volume at 100 mg/kg, po administered for 5 days and measured on day 9; assay type: functional; conditions: time 9 day
TERT-RPE1 [9] = experiment: Induction of cell cycle arrest in human TERT-RPE1 cells assessed as accumulation of cells at G1 phase at 100 nM incubated for 72 hrs by annexin V-FITC and PI staining based flow cytometry analysis; assay type: functional
HeLa [10] = experiment: Induction of cell cycle arrest in human HeLa cells assessed as accumulation of cells at G1 phase at 2500 nM incubated for 72 hrs by annexin V-FITC and PI staining based flow cytometry analysis; assay type: functional
Tubulin (Homo sapiens) = Tubulin (Homo sapiens) (UniProt P68371+Q9H4B7+P0DPH7+P68366+Q13509+Q71U36+P04350+Q3ZCM7+P07437+P68363+Q9BQE3+Q6PEY2+Q13885+Q9BVA1+Q9BUF5); experiment: Inhibition of [3H]colchicine binding to tubulin (unknown origin) at 1 to 5 uM relative to control; assay type: protein-complex assay; conditions: dose 1-5 µM
[11] = Toxicity in human T cells derived from human PBMC assessed as viable cells at 0.1 uM measured for 72 hrs by annexin V-FITC and PI staining based flow cytometry analysis (reference value: 66.5 to 77.5 %); assay type: cell-based, T-cell; conditions: read-out: Activity
[12] = Toxicity in human T cells derived from human PBMC assessed as necrotic cells at 1 uM measured for 72 hrs by annexin V-FITC and PI staining based flow cytometry analysis (reference value: 0.48 to 0.56 %); conditions: t-cell
[13] = Toxicity in human T cells derived from human PBMC assessed as viable cells at 0.1 uM measured for 48 hrs by annexin V-FITC and PI staining based flow cytometry analysis (reference value: 77.5 to 79.5 %); assay type: cell-based, T-cell; conditions: read-out: Activity
[14] = Toxicity in human T cells derived from human PBMC assessed as early apoptotic cells at 2.5 uM measured for 48 hrs by annexin V-FITC and PI staining based flow cytometry analysis (reference value: 6.75 to 8.22 %); conditions: t-cell
AHH-1 [15] = experiment: Induction of cell cycle arrest in human AHH-1 cells assessed as accumulation of cells at G2/M phase at 100 nM incubated for 72 hrs by annexin V-FITC and PI staining based flow cytometry analysis; assay type: functional
[16] = Toxicity in human T cells derived from human PBMC assessed as necrotic cells at 2.5 uM measured for 72 hrs by annexin V-FITC and PI staining based flow cytometry analysis (reference value: 0.48 to 0.56 %); conditions: t-cell
[17] = Toxicity in human T cells derived from human PBMC assessed as late apoptotic cells at 0.1 uM measured for 72 hrs by annexin V-FITC and PI staining based flow cytometry analysis (reference value: 11.5 to 17.6%); conditions: t-cell
TMD8 [18] = experiment: Antitumor activity against human TMD8 cells xenografted in NOD/SCID mouse assessed as reduction in tumor size at 100 mg/kg, po administered for 5 days; assay type: functional, organism-based; conditions: time 5.0 day
[19] = Toxicity in human T cells derived from human PBMC assessed as late apoptotic cells at 1 uM measured for 72 hrs by annexin V-FITC and PI staining based flow cytometry analysis (reference value: 11.5 to 17.6%); conditions: t-cell
[20] = Toxicity in human T cells derived from human PBMC assessed as viable cells at 2.5 uM measured for 72 hrs by annexin V-FITC and PI staining based flow cytometry analysis (reference value: 66.5 to 77.5 %); assay type: cell-based, T-cell; conditions: read-out: Activity
AHH-1 [21] = experiment: Induction of cell cycle arrest in human AHH-1 cells assessed as accumulation of cells at G1 phase at 100 nM incubated for 72 hrs by annexin V-FITC and PI staining based flow cytometry analysis; assay type: functional
HeLa [22] = experiment: Induction of cell cycle arrest in human HeLa cells assessed as accumulation of cells at G2/M phase at 1000 nM incubated for 72 hrs by annexin V-FITC and PI staining based flow cytometry analysis; assay type: functional
[23] = Metabolic stability in human liver microsome assessed as intrinsic clearance measured upto 60 mins by LC-MS/MS analysis; assay type: ADME; conditions: liver microsomes, read-out: CLH
TERT-RPE1 [24] = experiment: Antiproliferative activity against human TERT-RPE1 cells assessed as inhibition of cell growth measured for 48 hrs by MTT assay; assay type: functional, cell-based; conditions: RPE-1, 48 h
Farage = experiment: Antiproliferative activity against human Farage cells assessed as inhibition of cell growth measured for 72 hrs by MTT assay; assay type: functional, cell-based
AHH-1 [25] = experiment: Antiproliferative activity against human AHH-1 cells assessed as inhibition of cell growth measured for 48 hrs by MTT assay; assay type: functional, cell-based; conditions: AHH-1, 48 h
[26] = Selectivity ratio of IC50 for human TERT-RPE1 cells to IC50 for human AHH-1 cells; assay type: functional
TERT-RPE1 [27] = experiment: Induction of cell cycle arrest in human TERT-RPE1 cells assessed as accumulation of cells at G2/M phase at 1000 nM incubated for 72 hrs by annexin V-FITC and PI staining based flow cytometry analysis; assay type: functional
TERT-RPE1 [28] = experiment: Induction of cell cycle arrest in human TERT-RPE1 cells assessed as accumulation of cells at G2/M phase at 100 nM incubated for 72 hrs by annexin V-FITC and PI staining based flow cytometry analysis; assay type: functional
[29] = Toxicity in human T cells derived from human PBMC assessed as early apoptotic cells at 0.1 uM measured for 48 hrs by annexin V-FITC and PI staining based flow cytometry analysis (reference value: 6.75 to 8.22 %); conditions: t-cell
HeLa [30] = experiment: Induction of cell cycle arrest in human HeLa cells assessed as accumulation of cells at S phase at 100 nM incubated for 72 hrs by annexin V-FITC and PI staining based flow cytometry analysis; assay type: functional

Compound: COc1cc(C(=O)c2ccn(-c3ncnc4[nH]ccc34)c2)cc(OC)c1OC
- IC50 (TMD8 [1]): 21.6 nM
- Activity (AHH-1 [2]): 9.8%
- Activity (AHH-1 [3]): 19.4%
- Activity (TERT-RPE1 [4]): 3.4%
- Activity (TERT-RPE1 [5]): 72.7%
- Activity (TERT-RPE1 [6]): 17.6%
- viability at 72 h, 1 µM [7]: 64.7%
- Activity (TMD8 [8]): 402 mm3
- Activity (TERT-RPE1 [9]): 13.9%
- Activity (HeLa [10]): 17%
- inhibition (Tubulin (Homo sapiens)): 85%
- viability at 72 h, 0.1 µM [11]: 68.1%
- Activity [12]: 0.41%
- viability at 48 h, 0.1 µM [13]: 75.4%
- Activity [14]: 7.06%
- Activity (AHH-1 [15]): 32%
- Activity [16]: 0.14%
- Activity [17]: 11.8%
- Activity (TMD8 [18]): Active
- Activity [19]: 12%
- viability at 72 h, 2.5 µM [20]: 64.3%
- Activity (AHH-1 [21]): 37.1%
- Activity (HeLa [22]): 33.8%
- microsomal CLint [23]: 28 µL/min/mg
- IC50 (TERT-RPE1 [24]): 101 nM
- IC50 (Farage): 17.6 nM
- IC50 (AHH-1 [25]): 16.3 nM
- Ratio IC50 [26]: 6.2
- Activity (TERT-RPE1 [27]): 82.7%
- Activity (TERT-RPE1 [28]): 83%
- Activity [29]: 5.88%
- Activity (HeLa [30]): 43.2%
